Where a name gives a salt, the structure may show the parent alone. Read-outs that look alike come from different tables or passages of the source.
What was measured:
Test in all cases: biochemical
bovine thrombin = biological target: T1, bovine thrombin (Bos taurus, UniProt P00735); settings: for inhibition at 50 µM: read-out: inhibition percentage ± SEM, thr
T1 construct: purchased Sigma-Aldrich (Milan, Italy)

human recombinant fXa = biological target: T2, human recombinant fXa (Homo sapiens, UniProt P00742); settings: for inhibition at 50 µM: read-out: inhibition percentage ± SEM, fXa
T2 construct: purchased Chromogenix AB-Instrumentation Laboratories (Milan, Italy)
T2 sequence (P00742 235-488 limits assumed): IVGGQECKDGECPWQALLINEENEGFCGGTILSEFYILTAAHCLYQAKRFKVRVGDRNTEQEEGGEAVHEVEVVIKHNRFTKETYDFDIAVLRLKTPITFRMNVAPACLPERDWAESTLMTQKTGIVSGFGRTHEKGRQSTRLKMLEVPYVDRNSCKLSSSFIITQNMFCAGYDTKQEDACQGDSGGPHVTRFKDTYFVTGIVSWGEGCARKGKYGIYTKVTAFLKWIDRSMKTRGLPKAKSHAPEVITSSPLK
T2 sequence (P00742 41-179 partner limits assumed): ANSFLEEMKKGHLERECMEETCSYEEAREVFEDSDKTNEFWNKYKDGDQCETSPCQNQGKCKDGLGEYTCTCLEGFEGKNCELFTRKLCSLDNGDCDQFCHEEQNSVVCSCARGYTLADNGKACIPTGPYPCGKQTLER

[1] = biological target: T3, electric eel acetylcholinesterase (eeAChE) (Electrophorus electricus, UniProt O42275); assay type: biochemical; settings: for inhibition at 10 µM: read-out: inhibition percentage ± SEM, AChE
T3 construct: AChE (from electric eel) and BChE (from horse serum); from tissue
T3 sequence (O42275 24-633): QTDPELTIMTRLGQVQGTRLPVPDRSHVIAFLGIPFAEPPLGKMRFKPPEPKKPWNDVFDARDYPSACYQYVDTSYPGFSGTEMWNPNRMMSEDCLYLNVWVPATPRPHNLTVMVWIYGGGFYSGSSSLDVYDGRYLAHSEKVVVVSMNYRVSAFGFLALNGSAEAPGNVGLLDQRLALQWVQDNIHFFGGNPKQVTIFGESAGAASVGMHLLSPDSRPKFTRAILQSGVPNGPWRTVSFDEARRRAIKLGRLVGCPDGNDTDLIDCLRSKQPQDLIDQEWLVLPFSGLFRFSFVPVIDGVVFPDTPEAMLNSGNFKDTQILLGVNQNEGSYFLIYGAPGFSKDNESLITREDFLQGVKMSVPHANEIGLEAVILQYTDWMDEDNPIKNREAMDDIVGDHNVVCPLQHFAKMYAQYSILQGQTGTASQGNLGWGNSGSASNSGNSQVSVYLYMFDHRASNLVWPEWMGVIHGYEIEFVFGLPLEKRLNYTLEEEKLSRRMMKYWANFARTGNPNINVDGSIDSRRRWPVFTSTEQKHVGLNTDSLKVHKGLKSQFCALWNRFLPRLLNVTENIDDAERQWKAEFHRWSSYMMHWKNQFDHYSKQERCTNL

[2] = biological target: T4, horse serum butyrylcholinesterase (eqBChE) (Equus caballus, UniProt P81908); settings: for inhibition at 10 µM: read-out: inhibition percentage ± SEM, BChE
T4 construct: AChE (from electric eel) and BChE (from horse serum); from tissue; host or cells: horse serum
T4 sequence (P81908 whole entry): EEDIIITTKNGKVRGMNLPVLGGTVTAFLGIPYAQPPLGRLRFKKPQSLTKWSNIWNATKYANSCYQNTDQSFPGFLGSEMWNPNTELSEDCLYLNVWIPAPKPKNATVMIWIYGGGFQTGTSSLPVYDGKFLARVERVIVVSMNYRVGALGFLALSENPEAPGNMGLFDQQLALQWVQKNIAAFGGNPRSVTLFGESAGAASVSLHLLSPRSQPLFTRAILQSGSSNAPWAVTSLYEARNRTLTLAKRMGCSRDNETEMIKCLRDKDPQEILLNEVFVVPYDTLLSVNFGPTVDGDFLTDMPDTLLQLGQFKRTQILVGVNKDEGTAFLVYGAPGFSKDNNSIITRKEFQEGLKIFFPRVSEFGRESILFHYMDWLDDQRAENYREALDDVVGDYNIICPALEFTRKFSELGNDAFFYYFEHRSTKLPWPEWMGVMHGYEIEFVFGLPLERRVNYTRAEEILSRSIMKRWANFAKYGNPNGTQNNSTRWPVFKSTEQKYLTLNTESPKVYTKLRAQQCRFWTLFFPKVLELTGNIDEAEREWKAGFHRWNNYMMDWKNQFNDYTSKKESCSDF

[3] = bovine serum thrombin, Cheng–Prousoff from IC50, pH 8, read-out: Ki thr
[4] = horse serum BChE, Cheng–Prousoff from IC50, read-out: Ki BChE
[5] = human recombinant fXa, Cheng–Prousoff from IC50, pH 8, read-out: Ki fXa
[6] = electric eel AChE, Cheng–Prousoff from IC50, read-out: Ki AChE

Compound | Ki (bovine thrombin; [3]) | Ki [2, 4] | Ki (human recombinant fXa; [5]) | Ki [1, 6] | further results
O=C(Nc1cccc(OCc2ccc(F)cc2)c1)C1CCN(C2CCCC2)CC1 [Compound 15, N-(3-(4-fluorobenzyloxy)phenyl)-1-cyclopentylpiperidine-4-carboxamide] | 30 µM | 0.115 µM | – | – | inhibition at 50 µM (human recombinant fXa; human recombinant fXa): 40%; inhibition at 10 µM [1]: 27%
O=C(NCc1ccc(F)cc1)c1cccc(NC(=O)C2CCN(c3ccncc3)CC2)c1 [Compound 10, N-(3-(4-fluorobenzylcarbamoyl)phenyl)-1-(pyridin-4-yl)piperidine-4-carboxamide] | 10.6 µM | 0.37 µM | 2.4 µM | 0.255 µM | –
O=C(Nc1cccc(CCc2ccc(F)cc2)c1)C1CCN(c2ccncc2)CC1 [Compound 8] | 3.72 µM | 8.2 µM | 37.7 µM | 0.495 µM | –
O=C(Nc1cccc(COc2ccc(F)cc2)c1)C1CCN(c2ccncc2)CC1 [Compound 3] | 26.8 µM | 2.6 µM | 0.774 µM | 0.165 µM | –
CC(C)N1CCC(C(=O)Nc2cccc(OCc3ccc(F)cc3)c2)CC1 [Compound 14, N-(3-(4-fluorobenzyloxy)phenyl)-1-isopropylpiperidine-4-carboxamide] | – | 0.13 µM | – | 15.5 µM | inhibition at 50 µM (bovine thrombin; bovine serum thrombin): 5%; inhibition at 50 µM (human recombinant fXa; human recombinant fXa): 28%; Ki ([2]; eqBChE 0.18 U/mL, butyrylthiocholine iodide 50-300 µM, inhibitor 0-1 µM, x-axis intercept, read-out: Ki eqBChE from replot of Lineweaver–Burk slopes versus [I]): 0.104 µM
O=C(Nc1cccc(OCc2cccc(F)c2)c1)C1CCN(c2ccncc2)CC1 [Compound 1] | 0.006 µM | 6.95 µM | 5.6 µM | 0.058 µM | mechanism of eeAChE inhibition ([1]; Lineweaver–Burk, changed both Vmax and KM): noncompetitive/mixed-type inhibition; Ki ([1]; read-out: Ki eeAChE from replot of Lineweaver–Burk slopes versus inhibitor concentration): 0.056 µM; experimental ΔΔG score ([1]; thr vs AChE inhibition, one unit higher than predicted by docking): about 1.3 kcal/mol
N-(2-(3-chlorobenzyloxy)phenyl)-1-isopropylpiperidine-4-carboxamide [Compound 28] | 23 µM | 4.1 µM | 0.867 µM | 7 µM | –
CC(C)N1CCC(C(=O)Nc2cccc(OCc3cc(-c4ccc(Cl)s4)on3)c2)CC1 [Compound 30] | 16 µM | 2.13 µM | 0.09 µM | 5.1 µM | –
N=C(N)N1CCC(C(=O)Nc2cccc(OCc3cc(-c4cccc(Cl)c4)on3)c2)CC1 [Compound 29] | 15.3 µM | 1.12 µM | 0.388 µM | 10 µM | –
O=C(Nc1cccc(OCCc2ccc(F)cc2)c1)C1CCN(c2ccncc2)CC1 [Compound 7] | 4.46 µM | 5.63 µM | 0.133 µM | 0.65 µM | –
O=C(Nc1ccccc1OCc1ccc(F)cc1)C1CCN(C2CCCC2)CC1 [Compound 19, N-(2-(4-fluorobenzyloxy)phenyl)-1-cyclopentylpiperidine-4-carboxamide] | – | 0.215 µM | – | – | inhibition at 50 µM (bovine thrombin; bovine serum thrombin): 12%; inhibition at 50 µM (human recombinant fXa; human recombinant fXa): 28%; inhibition at 10 µM [1]: 35%
CC(C)N1CCC(C(=O)Nc2ccccc2OCc2cc(-c3ccc(Cl)cc3)on2)CC1 [Compound 26] | 13.7 µM | 1.11 µM | 0.007 µM | 11.5 µM | –
CC(C)N1CCC(C(=O)Nc2cccc(OCc3ccc(-c4ccc(Cl)cc4)cc3)c2)CC1 [Compound 22] | – | – | 0.165 µM | 3.33 µM | inhibition at 50 µM (bovine thrombin; bovine serum thrombin): 5%; inhibition at 10 µM ([2]; horse serum BChE): 35%
N=C(N)N1CCC(C(=O)Nc2cccc(OCc3cc(-c4ccc(Cl)s4)on3)c2)CC1 [Compound 31] | – | 1.62 µM | – | – | Ki (human recombinant fXa): 0.015 µM; inhibition at 10 µM [1]: 31%
CC(C)N1CCC(C(=O)Nc2cccc(OCc3cc(-c4ccc(Cl)cc4)on3)c2)CC1 [Compound 24] | – | 3.06 µM | 0.218 µM | 6.3 µM | inhibition at 50 µM (bovine thrombin; bovine serum thrombin): 15%
CC(C)N1CCC(C(=O)Nc2ccccc2OCc2ccc(Cl)cc2)CC1 [Compound 20, N-(2-(4-chlorobenzyloxy)phenyl)-1-isopropylpiperidine-4-carboxamide] | – | 0.105 µM | 0.484 µM | – | inhibition at 50 µM (bovine thrombin; bovine serum thrombin): 20%; inhibition at 10 µM [1]: 11%

Compound | Ki (bovine thrombin; [3]) | Ki [2, 4] | Ki (human recombinant fXa; [5]) | Ki [1, 6] | further results
O=C(Nc1ccc(F)cc1)Nc1cccc(NC(=O)C2CCN(c3ccncc3)CC2)c1 [Compound 12, 1-(3-(1-(pyridin-4-yl)piperidine-4-carboxamido)phenyl)-3-(4-fluorophenyl)urea] | 26.7 µM | – | 16.5 µM | 0.735 µM | inhibition at 10 µM ([2]; horse serum BChE): 15%
CC(C)N1CCC(C(=O)Nc2ccc(OCc3ccc(F)cc3)cc2)CC1 [Compound 16, N-(4-(4-fluorobenzyloxy)phenyl)-1-isopropylpiperidine-4-carboxamide] | – | 2.36 µM | – | 6.25 µM | inhibition at 50 µM (bovine thrombin; bovine serum thrombin): 11%; inhibition at 50 µM (human recombinant fXa; human recombinant fXa): 5%
N=C(N)N1CCC(C(=O)Nc2ccccc2OCc2ccc(Cl)cc2)CC1 [Compound 21, N-(2-(4-Chlorobenzyloxy)phenyl)-1-amidinopiperidine-4-carboxamide hydrochloride] | 25.9 µM | 8.2 µM | 60.6 µM | – | inhibition at 10 µM [1]: 38%
N=C(N)N1CCC(C(=O)Nc2cccc(OCc3ccc(-c4ccc(Cl)cc4)cc3)c2)CC1 [Compound 23] | 2.04 µM | 0.09 µM | – | 5.8 µM | Ki (human recombinant fXa; human fXa, read-out: Ki fXa): 0.031 ± 0.001 µM
O=C(Nc1ccc(F)cc1)c1cccc(NC(=O)C2CCN(c3ccncc3)CC2)c1 [Compound 9, N-(3-(4-fluorophenylcarbamoyl)phenyl)-1-(pyridin-4-yl)piperidine-4-carboxamide] | 4.47 µM | 8.25 µM | 4.04 µM | 0.27 µM | –
O=C(Nc1ccc(OCc2cccc(F)c2)cc1)C1CCN(c2ccncc2)CC1 [Compound 4] | 6.7 µM | 0.425 µM | 25.1 µM | 3.88 µM | –
O=C(Nc1cccc(OCCc2cccc(F)c2)c1)C1CCN(c2ccncc2)CC1 [Compound 6] | 2.14 µM | 1.75 µM | 0.488 µM | 0.369 µM | –
N=C(N)N1CCC(C(=O)Nc2cccc(OCc3ccc(F)cc3)c2)CC1 [Compound 13] | 20 µM | 0.26 µM | 33 µM | 10 µM | –
O=C(Nc1ccc(OCc2ccc(F)cc2)cc1)C1CCN(C2CCCC2)CC1 [Compound 17, N-(4-(4-fluorobenzyloxy)phenyl)-1-cyclopentylpiperidine-4-carboxamide] | – | 0.255 µM | – | 3.52 µM | inhibition at 50 µM (bovine thrombin; bovine serum thrombin): 25%; inhibition at 50 µM (human recombinant fXa; human recombinant fXa): 28%
O=C(Nc1cccc(OCc2ccc(F)cc2)c1)C1CCN(c2ccncc2)CC1 [Compound 2] | 0.21 µM | 1.21 µM | 1.1 µM | 0.24 µM | –
[H]/N=C(/N)c1ccc(NCc2nc3cc(C(=O)N(CCC(=O)O)c4ccccn4)ccc3n2C)cc1 [dabigatran, reference compound] | – | – | – | – | Ki (bovine thrombin): 0.0042 µM; inhibition at 10 µM ([2]; horse serum BChE): 36%
CC(C)N1CCC(C(=O)Nc2ccccc2OCc2ccc(F)cc2)CC1 [Compound 18, N-(2-(4-fluorobenzyloxy)phenyl)-1-isopropylpiperidine-4-carboxamide] | 5.35 µM | 0.378 µM | 10.5 µM | – | inhibition at 10 µM [1]: 15%
N=C(N)N1CCC(C(=O)Nc2ccccc2OCc2cc(-c3ccc(Cl)cc3)on2)CC1 [Compound 27] | 21.2 µM | 10 µM | 0.06 µM | – | inhibition at 10 µM [1]: 16%
O=C(Nc1ccccc1OCc1cccc(F)c1)C1CCN(c2ccncc2)CC1 [Compound 5] | – | 0.655 µM | – | – | inhibition at 50 µM (bovine thrombin; bovine serum thrombin): 10%; inhibition at 50 µM (human recombinant fXa; human recombinant fXa): 2%; inhibition at 10 µM [1]: 12%
N=C(N)N1CCC(C(=O)Nc2cccc(OCc3cc(-c4ccc(Cl)cc4)on3)c2)CC1 [Compound 25] | 0.63 µM | 7.67 µM | 0.026 µM | 11 µM | –
